The source made the active and inactive calls. No cut-off for these calls is given here.
How the values were obtained:
[1] = Cytotoxicity against Sprague-Dawley rat primary cerebellar granule neurons assessed as reduction in cell viability measured after 48 hrs by MTT assay; assay type: tissue-based, Cerebellar granule neurone; conditions: read-out: LC50
[2] = tested on: Cerebellar granule neurone; test: (§1) Neuroprotective activity against H2O2-induced neuronal death in Sprague-Dawley rat primary cerebellar granule neurons assessed as increase in cell viability preincubated for 24 hrs followed by H2O2 addition and measured after 24 hrs by MTT assay; assay type: functional; conditions: time 48.0 hrs
[3] = as §1; assay type: functional, Cerebellar granule neurone; conditions: time 48 hrs
[4] = Neuroprotective activity against H2O2-induced neuronal death in Sprague-Dawley rat primary cerebellar granule neurons assessed as increase in cell viability preincubated for 24 hrs followed by H2O2 addition and measured after 24 hrs by MTT assay relative to control; assay type: functional, Cerebellar granule neurone; conditions: time 48 hrs
[5] = tested on: Cerebellar granule neurone; test: (§2) Neuroprotective activity against H2O2-induced neuronal death in Sprague-Dawley rat primary cerebellar granule neurons assessed as increase in cell viability at 0.5 to 300 uM preincubated for 24 hrs followed by H2O2 addition and measured after 24 hrs by MTT assay; assay type: functional, tissue-based; conditions: dose 0.5-300 µM, time 48.0 hrs
[6] = target: T1, Acetylcholinesterase (Homo sapiens, UniProt P22303); test: Inhibition of human erythrocytes AChE using acetylthiocholine iodide as substrate measured after 30 mins by Ellman's method
[7] = tested on: Cerebellar granule neurone; test: as §2, with “reduction” for “increase”, “nuclear condensation” for “cell viability”, “Hoechst 33258 staining based confocal immunofluorescence microscopic analysis” for “MTT assay”; assay type: functional, tissue-based; conditions: dose 0.5-300 µM, time 48.0 hrs
[8] = tested on: Cerebellar granule neurone; test: as §2, with “reduction” for “increase”, “neurite fragmentation” for “cell viability”, “Hoechst 33258 staining based confocal immunofluorescence microscopic analysis” for “MTT assay”; assay type: functional, tissue-based; conditions: dose 0.5-300 µM, time 48.0 hrs
[9] = Cytotoxicity against […] cells assessed as reduction in cell viability measured after 24 hrs by neutral red staining based spectrophotometric method; conditions: read-out: LC50
[10] = tested on: Cerebellar granule neurone; test: Neuroprotective activity against H2O2-induced neuronal death in Sprague-Dawley rat primary cerebellar granule neurons assessed as increase in cell viability at 0.5 to 10 uM preincubated for 24 hrs followed by H2O2 addition and measured after 24 hrs by MTT assay; assay type: functional, tissue-based; conditions: dose 0.5-10 µM, time 48.0 hrs
[11] = target: T1, Acetylcholinesterase; test: Potency index, ratio of physostigmine IC50 to test compound IC50 for human erythrocytes AChE
[12] = Neuroprotective activity against H2O2-induced cell death in […] cells at 0.5 uM preincubated for 24 hrs followed by H2O2 addition and measured after 24 hrs by neutral red staining based spectrophotometric method relative to control; assay type: functional; conditions: time 48 hrs

T1 sequence (P22303 whole entry): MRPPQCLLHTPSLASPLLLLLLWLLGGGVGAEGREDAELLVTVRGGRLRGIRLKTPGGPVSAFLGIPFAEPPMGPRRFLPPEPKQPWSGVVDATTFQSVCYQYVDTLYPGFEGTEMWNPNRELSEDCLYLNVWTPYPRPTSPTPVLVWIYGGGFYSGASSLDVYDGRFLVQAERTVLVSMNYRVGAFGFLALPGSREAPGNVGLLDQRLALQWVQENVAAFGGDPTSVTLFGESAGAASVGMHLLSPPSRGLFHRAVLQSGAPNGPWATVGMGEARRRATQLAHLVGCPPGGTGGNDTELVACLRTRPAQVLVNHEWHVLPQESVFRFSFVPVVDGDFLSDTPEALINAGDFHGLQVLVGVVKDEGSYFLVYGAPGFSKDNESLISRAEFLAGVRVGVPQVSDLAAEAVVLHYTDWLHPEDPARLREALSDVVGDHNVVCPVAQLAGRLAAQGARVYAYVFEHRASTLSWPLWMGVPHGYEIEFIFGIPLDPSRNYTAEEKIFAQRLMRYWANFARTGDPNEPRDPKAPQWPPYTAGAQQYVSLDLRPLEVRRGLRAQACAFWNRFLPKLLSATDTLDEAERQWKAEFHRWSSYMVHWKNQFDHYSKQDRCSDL

For `C=CC(C)(C)c1cc([C@@H]2CC(=O)c3c(O)cc(O)c(CC=C(C)C)c3O2)c(OC)cc1O`, the CC50 at 48 h [1] was > 300 µM, the Activity [2] was “Dose-dependent effect” and the EC [3] was 200 µM. For the same molecule, the “%max” value [4] was 22.3%.

With `C=CC(C)(C)c1cc([C@@H]2CC(=O)c3c(cc(O)c(CC=C(C)C)c3O)O2)c(OC)cc1O` the CC50 at 48 h [1] was 40.7 µM and the Activity [5] was “inactive”.

For `CC(C)=CCc1c(O)cc(O)c2c1O[C@H](c1ccccc1)CC2=O` [GLABRANIN], the IC50 [6] was 0.0064 µM, the Activity [7] was “Active” and the CC50 at 48 h [1] was 44.5 µM. For the same molecule, the EC [3] was 10 µM, the Activity [8] was “Active” and the CC50 at 24 h [9] was 27.3 µM. The “%max” value [4] was 20.34%, the Activity [10] was “inactive” and the Ratio IC50 [11] was 12. It also gave an Activity [12] of 31.32%.

For `CC(C)=CCc1c(O)cc2c(c1O)C(=O)C[C@@H](c1ccc(O)c(O)c1CC=C(C)C)O2`, the CC50 at 48 h [1] was > 300 µM and the Activity [5] was “inactive”.

With `C=CC(C)(C)c1cc([C@@H]2CC(=O)c3c(O)cc(O)c(CC=C(C)C)c3O2)c(O)cc1O` the IC50 [6] was 29 µM, the Activity [7] was “Active” and the CC50 at 48 h [1] was 12.5 µM. For the same molecule, the EC [3] was 5 µM, the Activity [8] was “Active” and the CC50 at 24 h [9] was 13 µM. The “%max” value [4] was 16.37%, the Activity [10] was “inactive” and the Activity [12] was 51.76%.

For `O=C1C[C@@H](c2ccccc2)Oc2cc(O)cc(O)c21` [PINOCEMBRIN], the CC50 at 48 h [1] was 247 µM and the Activity [5] was “inactive”.
